Patent US20250352563A1, “Method and Use of Psilocybin in the Prevention and Treatment of Stroke” (Revive Therapeutics Ltd, priority 2022, published 2025)

How the values were obtained:
[1] = tested on: primary cortical neuronal culture; assay: ANA12 antagonism of psilocybin-mediated protection in primary cortical neuronal culture; settings: Glu 100 μM + Psi 10 μM + ANA 10 μM; p<0.05, one-way ANOVA
Description: A selective BDNF antagonist ANA12 was included on D10 along with psilocybin and glutamate (see timeline in FIG. 6C).

stroke rats (MCAo) [2] = assay: ANA12 antagonism of psilocybin-mediated neuroprotection in MCAo stroke rats; assay type: in vivo, rat
[3] = tested on: rat model of stroke (MCAo); settings: intraperitoneal injection prior to MCAo; cited from earlier work
[4] = tested on: rat primary cortical neuronal culture; assay: Glutamate neurotoxicity in primary cortical neuronal culture (MAP2 immunocytochemistry)
stroke rats (MCAo) [5] = assay: Post-stroke i.p. treatment, neurological and locomotor tests in MCAo stroke rats; settings: 1 mg/kg/d i.p. days 3 to 7 after MCAo
Protocol: In the posttreatment group, Psilocybin (1 mg/kg/day, n=7) or vehicle (n=6) was administered i.p. from day 3 to day 7.
(b) Neurological deficits were scored by the Bederson's neurological test (35, 36). In a postural reflex test, rats were examined for the degree of abnormal posture when suspended by 20-30 cm above the testing table. They were scored according to the following criteria. • 0 Rats extend both forelimbs straight. No observable deficit. • 1 Rats keep the one forelimb to the breast and extend the other forelimb straight. • 2 Rats show decreased resistance to lateral push in addition to behavior in score 1 without circling. • 3 Rats twist the upper half of their body in addition to behavior in score 2.
(§1) Locomotion was measured using an infrared activity monitor (Accuscan, Columbus, OH) as we previously described (19, 37). Rats were individually placed in a 3D infrared behavior chamber (42×42×21 cm) for 60 min. Four parameters were recorded: (a) horizontal activity (HACTV, the total number of beam interruptions that occurred in the horizontal sensors), (b) total distance traveled (TOTDIST, the distance, in centimeters, traveled by the animals), and (c) No. of movements (MOVNO), (d) horizontal movements time (MOVTIME).
Psilocybin (1 mg/kg/d, n=7) or vehicle (n=6) was delivered systemically (i.p.) from days 3 to 7 after the MCAo. Neurological and locomotor tests were examined on day 9 (FIG. 4A).

[6] = tested on: MAP2, synaptophysin (SYP), IBA1, and BDNF expression; assay: Post-stroke i.p. treatment, qRT-PCR of lesioned cerebral cortex; assay type: in vivo, rat; settings: 1 mg/kg/d i.p. days 3-7, cortex day 9
stroke rats (MCAo) [7] = assay: Pre-stroke i.c.v. treatment, brain infarction by TTC staining in MCAo stroke rats; assay type: in vivo, rat; settings: i.c.v. pretreatment, day 2
stroke rats (MCAo) [8] = assay: Pre-stroke i.c.v. treatment, neurological and locomotor tests in MCAo stroke rats; settings: D2
Protocol: Psilocybin or vehicle was given before or after the MCAo. For the pretreatment, animals were anesthetized. Psilocybin (100 μM×20 μL, n=7) or vehicle (saline, 20 μl, n=7) was administered intracerebroventricularly (i.c.v., AP, −0.8 mm; LV, −1.5 mm; DV, −3.5 mm) at 15 min before MCAo through a Hamilton microsyringe. The speed of injection was controlled by a syringe pump (Micro 4, WPI, Sarasota, FL).
The right middle cerebral artery (MCA) was transiently occluded (MCAo) as we previously described (33). In brief, the bilateral common carotids were clamped with nontraumatic arterial clips. The right MCA was ligated with a 10-O suture to generate focal infarction in the cerebral cortex. The ligature and clips were removed after 60 min ischemia to generate reperfusion injury. Core body temperature was monitored with a thermistor probe and maintained at 37° C. with a heating pad during anesthesia. After recovery from anesthesia, body temperature was maintained at 37° C. using a temperature-controlled incubator.
as §1
A total of 14 adult rats were used for this analysis. Psilocybin (100 μM×20 μL, n=7) or vehicle (saline, 20 μL, n=7) was delivered to the lateral ventricle (i.c.v., coordinates: AP:0.8 mm, Lat:1.5 mm, DV −3.5 mm) at 10-15 min prior to the a 60-min MCAo. Behavioral tests were conducted two days (or D2) after MCAo (FIG. 2A). […] Locomotoractivity was examined in infra-red activity chambers for one hour.

[9] = non-lesioned brain; cited from earlier work
[10] = ANA12 100 μM×20 μL/d intranasally days 0 and 1, Psilocybin i.c.v. prior to MCAo
[11] = stroke reduced expression, p<0.05

O=C(Nc1ccccc1C(=O)NC1CCCCNC1=O)c1cc2ccccc2s1 (centres unmarked) [ANA12]
psilocybin-mediated improvement in MAP2-ir [1]: significantly antagonized | Psilocybin-mediated improvement in horizontal activity (stroke rats (MCAo) [2]; [10]): significantly antagonized | Psilocybin-mediated improvement in total distance traveled (stroke rats (MCAo) [2]; [10]): significantly antagonized | psilocybin-mediated improvement in neurological behavior (stroke rats (MCAo) [2]; [10]): significantly antagonized | psilocybin-mediated reduction in brain infarction (stroke rats (MCAo) [2]; ANA12 100 μM×20 μL/d intranasally days 0 and 1 after MCAo, Psilocybin i.c.v. 100 μM×20 μl 15 min prior): significantly antagonized

CN(C)CCc1c[nH]c2ccccc12 [DMT, N,N-dimethyltryptamine]
BDNF expression [3]: increased | brain infarction [3]: reduced | brain inflammation [3]: reduced | staircase behavior [3]: improved

N[C@@H](CCC(=O)O)C(=O)O [Glutamate]
MAP2 immunoreactivity (MAP2-ir) ([4]; Glutamate 100 μM added on DIV10, fixed DIV12, p<0.001): significantly reduced

CN(C)CCc1c[nH]c2cccc(OP(=O)(O)O)c12 [Psilocybin, 4-phosphoryloxy-N,N-dimethyltryptamine]
horizontal activity (stroke rats (MCAo) [5]; day 9, p=0.011): increased | total distance traveled (stroke rats (MCAo) [5]; day 9, p=0.018): increased | movement number (stroke rats (MCAo) [5]; day 9, p=0.023): increased | movement time (stroke rats (MCAo) [5]; day 9, p=0.034): increased | body asymmetry (stroke rats (MCAo) [5]; day 9, p=0.0445): significantly reduced | Bederson's neurological test (stroke rats (MCAo) [5]; tested day 9, p=0.0421): significantly reduced | expression of BDNF in the lesioned brain (qRTPCR) ([6]; p=0.01, stroke vs. stroke+PSI): significantly upregulated | expression of MAP2 in the stroke brain (qRTPCR) [6, 11]: significantly normalized | expression of synaptophysin (SYP) in the stroke brain (qRTPCR) [6, 11]: significantly normalized | expression of IBA1 in the stroke brain (qRTPCR) ([6]; stroke upregulated expression, p<0.05): significantly normalized | area of infarction in each 2-mm slice (stroke rats (MCAo) [7]; p<0.001, two-way ANOVA, difference mainly on rostral slices): significantly lowered infarction | infarct volume (TTC staining) (stroke rats (MCAo) [7]; typical TTC staining FIG. 3A): reduced the infarct volume | body asymmetry (stroke rats (MCAo) [8]; 100 μM×20 μL i.c.v. 10-15 min prior to MCAo, p=0.00345): significantly decreased | horizontal activity (HACTV) (stroke rats (MCAo) [8]; 100 μM×20 μL i.c.v. prior to MCAo, one hour, p=0.0246): significantly increased | movement time (MOVTIME) (stroke rats (MCAo) [8]; 100 μM×20 μL i.c.v. prior to MCAo, p=0.00351): significantly increased | total distance traveled (TOTODIST) (stroke rats (MCAo) [8]; 100 μM×20 μL i.c.v. prior to MCAo, p=0.0103): significantly increased | movement number (MOVNO) (stroke rats (MCAo) [8]; 100 μM×20 μL i.c.v. prior to MCAo, p=0.0479): significantly increased | crossing of the blood-brain barrier [9]: inefficient to freely cross the blood-brain barrier | Glu-mediated neuronal loss (MAP2-ir) ([4]; Glu 100 μM, Psi 10 μM, photomicrographs FIG. 1A): antagonized
